# Test: Ligand facilitated Fe(III) efflux from liposomes
# Format: biochemical
# Set-up: unit not given here
# Settings: efflux rate k at 10 μM ligand concentration; ferrozine absorbance 562 nm, 120 min kinetic read
# Protocol: Assay 1: Ligand Facilitated Fe(III) Efflux from Liposomes
# Preparation of POPC (1 palmitoyl-2-oleoyl-sn-glycero-3 phosphocholine): Cholesterol Liposomes
# A 1M buffer solution of MES and Tris was prepared by dissolving 121.14 grams of Tris base and 213.25 grams of MES hydrate in 500 mL of MilliQ water and adjusted to pH7.0 using an […] HCl solution before bringing the total volume of the solution to 1 L. A 500 mM solution of FeCl3 was prepared by dissolving 0.811 grams of anhydrous FeCl3 in 10 mL of a 0.1M H2SO4 aqueous solution. Inside buffer is prepared in a 50 mL falcon tube, which was added with 25 mL of MilliQ water, 1.61 g of sodium citrate, 1.5 mL of the above FeCl3 solution, and 2.5 mL of the 1M MES/Tris HCl buffer (pH=7.0), and finally additional MilliQ H2O to bring to a 50 mL final volume.
# Lipid solution is prepared by dissolving 206.9 mg of POPC (1-palmitoyl-2-oleoyl-sn-glycero-3-phosphocholine) and 8.6 mg of cholesterol in 10 mL of ethanol.
# The lipids solution and the inside buffer solution are independently loaded into 10 mL luer lock syringes for loading into a virgin cartridge on a Precision Nanosystems NanoAssembler to prepare unilamaller liposomes with the following parameters: 7.5 mL total volume, 1.5:1 mixing ratio of inside buffer:lipids solution, 8 mL/min flow rate, ambient temperature, 0.35 mL start waste, and 0.05 mL of end waste. 7.5 mL of liposomes is harvested for purification on a 6-inch long, 1-inch diameter Sephadex G-50 column wetted in 600 mM sodium ascorbate and 50 mM MES/Tris HCl pH 7.0 buffer. This buffer also serves as the column running buffer. The crude liposome solution is carefully loaded with minimal volume of running buffer above the top of the Sphadex, allowed to enter the matrix, and the column is run with the continued addition of running buffer. The eluting liposomes, observed as a milky and turbid solution, are collected until free iron begins to elute (observed as a deep purple color) and the fractions are pooled for phosphorus quantitation.
# Determination of Phosphorus Content:
# Phosphorus content of eluted liposomes was determined by the process outlined below. 10 μL of liposome elution and a running buffer blank are added to a 5 mL glass vial containing 450 μL of a 8.9 M aqueous H2SO4 solution, the mixture is heated to 225° C. for 25 minutes in an aluminum heat block to hydrolyze POPC and cooled for 5 minutes. 200 μL of a 30% hydrogen peroxide aqueous solution is added to each vial and heated to 225° C. for 25 minutes. After cooling, the phosphorus content was determined using an Abcam Phosphate Assay kit, with buffer subtracted phosphorus levels determined against a standard curve of phosphate included in the kit. Liposomes were diluted to 1 mM phosphate in Running Buffer for use in assays after accounting for dilutions made during phospholipid digestion.
# Determination of the Iron Transporting Rate Constant of the Ligands:
# Determination of the rate at which a small molecule ligand liberates (transport) Ferric iron from liposomes is performed in clear bottom black 384-well plates on a Spectramax i3x set to read the absorbance at 562 nm in the kinetic mode every 60 seconds for 120 minutes. 1 μL of serially diluted DMSO stock solution of a small molecule ligand is added to wells in triplicate to give the final concentrations of 40, 20, 10, 5, 2.5, and 1.25 uM of the ligand at 80 μL final volume, followed by addition of 1 μL of 100 mM Ferrozine in water to give a final concentration of 1 mM ferrozine. 78 μL of liposomes diluted to 1 mM phosphorus in running buffer is added to wells as quickly as possible (using a digital repeater multichannel pipette) with the kinetic read initiated as rapidly as possible after addition of liposomes to all wells. Typically, eight compounds at six concentrations are tested in triplicate simultaneously. […]
row,Structure (SMILES),Liposome Fe transport kefflux at 10 μM
1,Cc1coc2c(O)c(=O)cccc12,7.5-10
2,CC(C)c1cccc(S)c(=O)c1,0.1-5
3,O=c1c(F)cccc(C2CCCCO2)c1O (stereo not drawn),5-7.5
4,O=c1c(F)cccc(C2CC2)c1O,7.5-10
5,O=c1ccc(F)cc(C2CCOCC2)c1O,7.5-10
6,Cc1cccc(C2CCCCO2)c(O)c1=O (stereo not drawn),<.1
7,CC1CCC(c2ccccc(=O)c2O)O1 (racemic),5-7.5
8,O=c1c(F)cccc(OC2CCC2)c1O,10-25
9,O=c1cccc(OC2CC3(CC3)C2)cc1O,5-7.5
10,C[C@H](Oc1ccccc(=O)c1O)C1CC1 (stereo in doubt),5-7.5
11,CCc1ccc(F)c(=O)c(O)c1,0.1-5
12,C[C@@H](Oc1ccccc(=O)c1O)C1CC1 (stereo in doubt),5-7.5
13,O=c1ccc(OC2CC3(CC3)C2)ccc1O,0.1-5
14,CC(C)c1ccc(F)cc(O)c1=O,0.1-5
15,O=c1cccc(F)cc1O,0.1-5
16,C[C@@H]1CCC(c2ccccc(=O)c2O)O1 (mixture of isomers),5-7.5
17,Cc1cc(Cl)ccc(=O)c1O,5-7.5
18,COC1CCCC1c1ccccc(=O)c1O (stereo not drawn),5-7.5
19,O=c1ccccc(C2CC3CC3C2)c1[O-].[Na+] (stereo not drawn),0.1-5
20,Cc1cc(F)ccc(=O)c1O,5-7.5
21,O=c1ccc(C(CO)Cc2ccccc2)ccc1O (stereo not drawn),0.1-5
22,O=c1c(F)cccc(OC2CCCC2)c1O,7.5-10
23,CC1(c2ccc(O)c(=O)cc2)CC1,0.1-5

row,Structure (SMILES),Liposome Fe transport kefflux at 10 μM
1,O=c1ccc(F)ccc1O,7.5-10
2,CC1(C)CCC(c2ccc(O)c(=O)cc2)C1 (stereo not drawn),0.1-5
3,O=c1c(F)cccc(OC2CC2)c1O,0.1-5
4,O=c1ccc(F)cc(C2CCCO2)c1O (stereo not drawn),5-7.5
5,O=c1ccccc(CC2COC2)c1O,<0.1
6,O=c1ccccc(OCC2CCC2)c1O,5-7.5
7,O=c1c(O)ccc(OC2CCCC2)cc1F,5-7.5
8,Cc1cccc(C2CCCO2)c(O)c1=O (stereo not drawn),10-25
9,CC1(c2ccc(O)c(=O)c(F)c2)CC1,5-7.5
10,O=c1ccccc(OC2CCCC2)c1O,7.5-10
11,O=c1cccc(O[C@H]2CCOC2)cc1O (stereo in doubt),5-7.5
12,CC(C)c1cc(F)ccc(=O)c1O,0.1-5
13,O=c1cccc2c(c1O)OCCC2,5-7.5
14,O=c1ccc(F)cc(OC2CCC2)c1O,0.1-5
15,O=c1ccc(OC2CCCC2)ccc1O,5-7.5
16,O=c1c(O)ccc(C2CC2)cc1F,10-25
17,O=c1cccc(OC2CCC2)cc1O,0.1-5
18,CC(C)c1cccc(=O)c(S)c1,0.1-5
19,O=c1ccc(F)cc(C2CCCCO2)c1O (stereo not drawn),0.1-5
20,COc1ccc(O)c(=O)cc1,5-7.5
21,O=c1c(F)cccc(OC2CC3(CC3)C2)c1O,0.1-5
22,O=c1cccc(C2CC3CC3C2)cc1O (stereo not drawn),0.1-5
23,O=c1cccc(C2CCC3(CC2)CC3)cc1O,0.1-5

# Test: Mouse 6-hour PK study
# Settings: mouse, in vivo
# Source text: Useful such assays include, but are not limited to e.g., those measurements made in PK studies, such as rodent and non-human primate PK studies, including e.g., mouse (such as mouse 6-hour PK studies), rat PK studies, cynomolgus or rhesus PK studies, or the like. Useful measurements obtained in such PK studies include but are not limited to e.g., maximum concentration (Cmax) reflecting the “peak” of a drug observed after its administration that can reflect not only the rate but also the extent of absorption, area under the curve (AUC) representing the area under the plot of tissue (e.g., plasma) concentration against time after drug administration which is of particular use in estimating bioavailability of drugs and drug total clearance, half-life (t1/2) or the period of time required for the concentration or amount of drug to be reduced to exactly one-half of a given concentration or amount that indicates the persistence of the drug in its volume of distribution, and the like.
# Such assessments included human and mouse liver microsomal stability assays as well as 6-hour mouse PK studies.
AUC(0-t),Cmax,half-life,Structure (SMILES),mouse 6-hour PK properties as compared to hinokitiol
500 to 1500 ng·h/mL,500 to 1500 ng/mL,1.25 to 4.99 h,"O=c1ccccc(C2CCOCC2)c1O [Ex. 8, 2-hydroxy-3-(tetrahydro-211-pyran-4-yl)cyclohepta-2,4,6-trien-1-one]",one or more improved mouse 6-hour PK properties as compared to hinokitiol
> 20000 ng·h/mL,5000 to 20000 ng/mL,1.25 to 4.99 h,"O=c1c(O)cc(C2CC2)ccc1F [Ex. 34, 4-cyclopropyl-7-fluoro-2-hydroxycyclohepta-2,4,6-trien-1-one]",one or more improved mouse 6-hour PK properties as compared to hinokitiol
< 499 ng·h/mL,< 499 ng/mL,1.25 to 4.99 h,"Cc1cc(C(C)C)ccc(O)c1=O [Ex. 28, 7-hydroxy-4-isopropyl-2-methylcyclohepta-2,4,6-trien-1-one]",one or more improved mouse 6-hour PK properties as compared to hinokitiol
500 to 1500 ng·h/mL,500 to 1500 ng/mL,1.25 to 4.99 h,"CCc1cccc(C)c(=O)c1O [Ex. 27, 7-ethyl-2-hydroxy-3-methylcyclohepta-2,4,6-trien-1-one]",one or more improved mouse 6-hour PK properties as compared to hinokitiol
500 to 1500 ng·h/mL,1500 to 5000 ng/mL,< 1.25 h,"O=c1ccccc(OCC2CC2)c1O [Ex. 83, 3-(cyclopropylmethoxy)-2-hydroxycyclohepta-2,4,6-trien-1-one]",one or more improved mouse 6-hour PK properties as compared to hinokitiol
< 499 ng·h/mL,< 499 ng/mL,5 to 9.99 h,"Cc1cccc(C(C)C)c(O)c1=O [Ex. 30, 2-hydroxy-3-isopropyl-7-methylcyclohepta-2,4,6-trien-1-one]",one or more improved mouse 6-hour PK properties as compared to hinokitiol
500 to 1500 ng·h/mL,500 to 1500 ng/mL,1.25 to 4.99 h,"O=c1cccc(C2CC3CCC(C2)O3)cc1O (stereo not drawn) [Ex. 6, 4-(8-oxabicyclo[3.2.1]octan-3-yl)-2-hydroxycyclohepta-2,4,6-trien-1-one]",one or more improved mouse 6-hour PK properties as compared to hinokitiol
500 to 1500 ng·h/mL,< 499 ng/mL,< 1.25 h,"O=c1ccccc(OC2CC3(CC3)C2)c1O [Ex. 82, 2-hydroxy-3-(spiro[2.3]hexan-5-yloxy)cyclohepta-2,4,6-trien-1-one]",one or more improved mouse 6-hour PK properties as compared to hinokitiol

# Source: US20230406803A1, “TROPOLONE DERIVATIVES AND TAUTOMERS THEREOF FOR IRON REGULATION IN ANIMALS” (Kinesid Therapeutics, Inc, priority 2020, published 2023)
